Data taken from patent US10730868B2, “Bicyclic heteroaryl substituted compounds” (BRISTOL-MYERS SQUIBB COMPANY, priority 2016, dated 2020).

What follows are compounds tested against PAR4 (Homo sapiens (Human), UniProt Q96RI0) (assay: PAR4 FLIPR assay (antagonism of agonist-peptide-induced calcium mobilization)). Settings: H-Ala-Phe(4-F)-Pro-Gly-Trp-Leu-Val-Lys-Asn-Gly-NH2-induced intracellular calcium mobilization, PAR4-expressing HEK293 cells; read-out: PAR4 FLTPR assay (IC50).
Assay type: cell-based
Source text: The Fluorometric Imaging Plate Reader (FLIPR) assay is an exemplary in vitro assay for measuring the activity of the PAR4 antagonists of the present invention. In this assay, intracellular calcium mobilization is induced in PAR4 expressing cells by a PAR4 agonist and calcium mobilization is monitored.
HEK293 cells stably expressing PAR4 were generated by a standard method of transfection of human PAR4 (F2R23) cDNA expression vector and selected based on PAR4 protein expression or mRNA expression. […] These cells also express endogenous PAR1 and can elicit calcium signal upon stimulation with PAR1 agonist peptide. Therefore, the same cells were also used to determine selectivity against PAR1 and agonist activity for both receptors. Cells from HEK293 PAR4 Clone 1.2A (BMS Arctic ID 383940) were propagated and used for calcium mobilization studies.
FLIPR-based calcium mobilization assay in HEK293 cells was used to measure PAR4 antagonism agonism, and selectivity against PAR1. The activity of the PAR4 antagonists of the present invention were tested in PAR4 expressing cells by monitoring H-Ala-Phe(4-F)-[…]NH2-induced intracellular calcium mobilization. Counter screens for agonist activity and PAR1 antagonist activity were also performed. Briefly, PAR/PAR4-expressing HEK293 cells were grown in DMEM (Life Technology, Grand Island, N.Y.) containing 10% heat-inactivated FBS, 1% Penicillin-Streptomycin, 10 μg/mL blasticidin, and 100 μg/mL Zeocin at 37° C. with 5% CO2. Cells were plated overnight prior to the experiment in a black 384-well Purecoat Amine clear bottom plate (Becton Dickinson Biosciences, San Jose, Calif.) at 10,000 cells/well in 30 μL growth medium and incubated in a humidified chamber at 37° C. with 5% CO2 overnight. Prior to compound addition, the cell medium was replaced with 40 μL of 1× calcium and magnesium-containing Hank's Balanced Saline Solution (HBSS) (with 20 mM HEPES) and 1:1000 diluted fluorescent calcium indicator (Codex Biosolutions, Gaithersburg, Md.). After a 30 minute incubation period at 37° C. and a further 30 minute incubation and equilibration period at room temperature, 20 μL test compound (diluted in 1×HBSS buffer) was added at various concentrations at 0.17% dimethyl sulfoxide (DMSO) final concentration. Changes in fluorescence intensity were measured using a Functional Drug Screening System (FDSS, Hamamatsu, Japan) to determine agonist activities. The cells were then incubated for 30 minutes at room temperature followed by addition of 20 μL of agonist peptide for antagonist activity measurement. […] Compound potency was derived from 11-point concentration-response curves.

PAR4, sequence (Q96RI0 18-385): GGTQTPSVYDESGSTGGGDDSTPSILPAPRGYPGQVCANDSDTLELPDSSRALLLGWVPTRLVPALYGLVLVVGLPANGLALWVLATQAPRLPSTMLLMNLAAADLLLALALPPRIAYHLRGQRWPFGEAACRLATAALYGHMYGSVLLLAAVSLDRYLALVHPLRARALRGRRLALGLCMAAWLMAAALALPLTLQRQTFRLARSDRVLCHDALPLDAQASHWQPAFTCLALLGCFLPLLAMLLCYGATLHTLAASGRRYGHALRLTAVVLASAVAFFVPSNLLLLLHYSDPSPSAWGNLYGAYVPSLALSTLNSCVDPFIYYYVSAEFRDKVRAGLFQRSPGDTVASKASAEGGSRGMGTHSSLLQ

Q: How did the IC50 turn out when `COC(=O)c1ccc(NC(=O)O[C@@H]2CCC[C@@H]2Oc2cc3sc(-c4cc(C)cc5nc(OC)cnc45)nc3cc2F)cn1` [Example 47, methyl 5-(((((1R,2S)-2-((5-fluoro-2-(2-methoxy-7-methylquinoxalin-5-yl)benzo[d]thiazol-6-yl)oxy)cyclopentyl)oxy)carbonyl)amino)picolinate] was run?
A: 4.2 nM

Q: For `COc1cnc2c(-c3nc4cc(F)c(O[C@H]5CC(F)(F)CC[C@H]5OC(=O)Nc5cnc(CCO)nc5)cc4s3)cc(C)cc2n1` [Example 3], which IC50 is on record?
A: 0.82 nM

Q: How did the IC50 turn out when `COc1cnc2c(-c3nc4cc(F)c(O[C@H]5CC(F)(F)CC[C@H]5OC(=O)Nc5cnc(OCCOP(=O)(O)O)nc5)cc4s3)cc(C)cc2n1` [Example 19, (1R,2S)-4,4-difluoro-2-((5-fluoro-2-(2-methoxy-7-methylquinoxalin-5-yl)benzo[d]thiazol-6-yl)oxy)cyclohexyl (2-(2-(phosphonooxy)ethoxy)pyrimidin-5-yl)carbamate] was run?
A: 1 nM

Q: `COc1cnc2c(-c3nc4cc(F)c(O[C@@H]5CC[C@@H]5OC(=O)Nc5cnc(OCCO)nc5)cc4s3)cc(Cl)cc2c1` [Example 76] was tested. Which IC50 did it give?
A: 10 nM

Q: Which IC50 does the source give for `COc1cnc2c(-c3nc4cc(F)c(O[C@H]5CC[C@H]5O)cc4s3)cc(C)cc2n1` [Example 60, cis-2-((5-fluoro-2-(2-methoxy-7-methylquinoxalin-5-yl)benzo[d]thiazol-6-yl)oxy)cyclobutanol (Homochiral)] here?
A: 9.8 nM

Q: `COc1cnc2c(-c3nc4cc(F)c(O[C@H]5CCC[C@H]5OC(=O)Nc5ccc(C#N)nc5)cc4s3)cc(C)cc2n1` [Example 36] was tested. Which IC50 did it give?
A: 2.4 nM

Q: For `COc1ccc(NC(=O)O[C@H]2CCC[C@H]2Oc2cc3sc(-c4cc(C)cc5nc(OC)cnc45)nc3cc2F)cn1` [Example 23], which IC50 is on record?
A: 30 nM

Q: Which IC50 does the source give for `COc1cnc2c(-c3nc4cc(F)c(O[C@@H]5CC[C@@H]5OC(=O)Nc5cnc(OCCO)nc5)cc4s3)cc(Cl)cc2n1` [Example 78] here?
A: 9.7 nM

Q: `CCOc1cnc2c(-c3nc4cc(F)c(O[C@H]5CC(F)(F)CC[C@H]5OC(=O)Nc5cnc(C)nc5)cc4s3)cc(C)cc2n1` [Example 18, (1R,2S)-2-((2-(2-ethoxy-7-methylquinoxalin-5-yl)-5-fluorobenzo[d]thiazol-6-yl)oxy)-4,4-difluorocyclohexyl (2-methylpyrimidin-5-yl)carbamate] was tested. Which IC50 did it give?
A: 3.9 nM

Q: With `COc1cnc2c(-c3nc4cc(F)c(O[C@H]5CCC[C@H]5OC(=O)Nc5ccc(C)nc5)cc4s3)cc(C)cc2n1` [Example 32] as the compound, how does the IC50 read?
A: 2.6 nM

Q: `COc1cnc2c(-c3nc4cc(F)c(O[C@H]5CCC[C@H]5OC(=O)Nc5ccc(C(N)=O)nc5)cc4s3)cc(C)cc2n1` [Example 49, (1R,2S)-2-((5-fluoro-2-(2-methoxy-7-methylquinoxalin-5-yl)benzo[d]thiazol-6-yl)oxy)cyclopentyl (6-carbamoylpyridin-3-yl)carbamate] was tested. Which IC50 did it give?
A: 3.6 nM

Q: How did the IC50 turn out when `COc1cnc2c(-c3nc4cc(F)c(O[C@H]5CC(F)(F)C[C@H]5OC(=O)Nc5cnc(C)nc5)cc4s3)cc(C)cc2n1` [Example 100] was run?
A: 1.3 nM

Q: With `COc1cnc2c(-c3nc4cc(F)c(O[C@H]5CCC[C@H]5OC(=O)Nc5cncc(C#N)c5)cc4s3)cc(C)cc2n1` [Example 34] as the compound, how does the IC50 read?
A: 1.6 nM

Same assay, conditions: H-Ala-Phe(4-F)-[…]NH2-induced intracellular calcium mobilization, PAR4-expressing HEK293 cells; read-out: PAR4 FLTPR assay (IC50)

Q: Which IC50 does the source give for `COc1cnc2c(-c3nc4cc(F)c(O[C@@H]5CCCC[C@@H]5OC(=O)Nc5cccnc5)cc4s3)cc(C)cc2n1` (single isomer, unassigned; enantiomer 2) [Example 59, cis-2-((5-fluoro-2-(2-methoxy-7-methylquinoxalin-5-yl)benzo[d]thiazol-6-yl)oxy)cyclohexyl pyridin-3-ylcarbamate (Enantiomer 2)] here?
A: 77 nM

Q: `COc1ccc(NC(=O)O[C@H]2CCN(C(=O)OC(C)(C)C)C[C@H]2Oc2cc3sc(-c4cc(C)cc5nc(OC)cnc45)nc3cc2F)cn1` (racemic) [Example 92, rac-cis-tert-butyl 3-((5-fluoro-2-(2-methoxy-7-methylquinoxalin-5-yl)benzo[d]thiazol-6-yl)oxy)-4-(((6-methoxypyridin-3-yl)carbamoyl)oxy)piperidine-1-carboxylate] was tested. Which IC50 did it give?
A: 12 nM

Q: Which IC50 does the source give for `COc1cnc2c(-c3nc4cc(F)c(O[C@@H]5CCC[C@@H]5OC(=O)Nc5cnc(C)nc5)cc4s3)cc(C#N)cc2n1` (racemic) [Example 46, rac-cis-2-((2-(7-cyano-2-methoxyquinoxalin-5-yl)-5-fluorobenzo[d]thiazol-6-yl)oxy)cyclopentyl (2-methylpyrimidin-5-yl)carbamate] here?
A: 2 nM

Q: How did the IC50 turn out when `COc1cnc2c(-c3nc4cc(F)c(O[C@@H]5CN(C(C)=O)CC[C@@H]5OC(=O)Nc5cnc(C)nc5)cc4s3)cc(C)cc2n1` (racemic) [Example 94, rac-cis-1-acetyl-3-((5-fluoro-2-(2-methoxy-7-methylquinoxalin-5-yl)benzo[d]thiazol-6-yl)oxy)piperidin-4-yl (2-methylpyrimidin-5-yl)carbamate] was run?
A: 2300 nM

Q: For `COc1cnc2c(-c3nc4cc(F)c(O[C@@H]5CC(F)(F)C[C@@H]5OC(=O)Nc5cnc(C)nc5)cc4s3)cc(C)cc2n1` (racemic) [Example 97, rac-cis-4,4-difluoro-2-((5-fluoro-2-(2-methoxy-7-methylquinoxalin-5-yl)benzo[d]thiazol-6-yl)oxy)cyclopentyl (2-methylpyrimidin-5-yl)carbamate)], which IC50 is on record?
A: 9.2 nM

Q: With `COc1cnc2c(-c3nc4cc(F)c(O[C@@H]5CCC[C@H]5O)cc4s3)cc(C)cc2n1` (racemic) [Example 41, rac-trans-2-((5-fluoro-2-(2-methoxy-7-methylquinoxalin-5-yl)benzo[d]thiazol-6-yl)oxy)cyclopentanol] as the compound, how does the IC50 read?
A: 180 nM

Q: `COc1cnc2c(-c3nc4cc(F)c(O[C@@H]5CC(C)(C)C[C@@H]5OC(=O)Nc5cnc(C)nc5)cc4s3)cc(C)cc2n1` (single isomer, unassigned; enantiomer 2) [Example 85, (cis)-2-((5-fluoro-2-(2-methoxy-7-methylquinoxalin-5-yl)benzo[d]thiazol-6-yl)oxy)-4,4-dimethylcyclopentyl (2-methylpyrimidin-5-yl)carbamate Enantiomer 2] was tested. Which IC50 did it give?
A: 41 nM

Q: `COc1cnc2c(-c3nc4cc(F)c(O[C@@H]5CC(C)(C)C[C@@H]5OC(=O)Nc5cnc(C)nc5)cc4s3)cc(C)cc2n1` (racemic) [Example 83] was tested. Which IC50 did it give?
A: 6.8 nM

Q: With `COc1cnc2c(-c3nc4cc(F)c(O[C@@H]5CCC(C)(C)[C@@H]5OC(=O)Nc5cnc(C)nc5)cc4s3)cc(C)cc2n1` (racemic) [Example 104, rac-cis-5-((5-fluoro-2-(2-methoxy-7-methylquinoxalin-5-yl)benzo[d]thiazol-6-yl)oxy)-2,2-dimethylcyclopentyl (2-methylpyrimidin-5-yl)carbamate] as the compound, how does the IC50 read?
A: 2.4 nM

Q: For `COc1cnc2c(-c3nc4cc(F)c(O[C@@H]5CCCC[C@H]5OC(=O)Nc5cnc(C)nc5)cc4s3)cc(C)cc2n1` (racemic) [Example 54, rac-trans-2-((5-fluoro-2-(2-methoxy-7-methylquinoxalin-5-yl)benzo[d]thiazol-6-yl)oxy)cyclohexyl (2-methylpyrimidin-5-yl)carbamate], which IC50 is on record?
A: 13 nM

Q: Which IC50 does the source give for `COc1cnc2c(-c3nc4cc(F)c(O[C@@H]5CCC[C@H]5O)cc4s3)cc(CO)cc2n1` (racemic) [Example 43, rac-trans-2-((5-fluoro-2-(7-(hydroxymethyl)-2-methoxyquinoxalin-5-yl)benzo[d]thiazol-6-yl)oxy)cyclopentanol] here?
A: 22 nM

Q: Which IC50 does the source give for `COc1ccc(NC(=O)O[C@H]2CC[C@H]2Oc2cc3sc(-c4cc(C)cc5nc(OC)cnc45)nc3cc2F)cn1` (racemic) [Example 66] here?
A: 0.79 nM
